{"source": "paper PMC10906223", "about": "(JCI Insight, 2024)", "key": {"[1]": {"tested_on": "human donor dispersed islet cells", "assay": "Somatostatin secretion from non-diabetic human donor dispersed islet cells", "type": "cell-based", "description": "Pancreata of nondiabetic C57BL/6J mice were digested using collagenase P (Roche Diagnostics, catalog 11213873001), and islets were manually picked up using a stereomicroscope (ZEISS Stemi 305). […] Isolated mouse islets or provided human islets were dispersed as described ([28]). Briefly, 100–120 islets were washed 2 times using modified HBSS, then dispersed in 600 μL Accutase (Innovative Cell Technologies, catalog AT-104) by gently pipetting up and down for 7 minutes at 37°C. […] Following refreshing of KRBH, cells were dispensed in 8 microfuge tubes (2,000 cells/tube) and treated with WCDD301, preclustered Ephrin-A5 Fc, or preclustered Fc in the presence or absence of the competitive inhibitor of EphA4 receptor, rhyncophylline ([60]) (MilliporeSigma, catalog SML2345). In the presence or absence of these effectors, secretion assay was performed sequentially as shown in Supplemental Table 5. […] Preclustering of Ephrin-A5 Fc was done by mixing Ephrin-A5 Fc or Fc alone (BioLegend, catalog 790102) with anti-Fc antibody (Invitrogen, catalog A16086) (1:10 molar ratio) 20 minutes before treatment ([62]). […] Shedding of cleaved EphA4 was measured from the cell culture medium. Experiments were performed by dispersion of 200 islets, and EphA4 levels in media were measured by EphA4 ELISA (ABclonal, catalog RK06572).\nThe Integrated Islet Distribution Program provided us human donor islets with their characteristics (Supplemental Table 6). Islets were centrifuged at 500g for 3 minutes, resuspended in CMRL 1066 medium (Gibco, catalog 1150-037) containing 11 mM glucose, and rested in an incubator overnight.\nFor the hormone secretion assay, islets or dispersed islet cells were adapted in KRBH buffer containing 11 mM glucose for 1 hour. Then, after 2 washes in HBSS containing 11 mM glucose, islets or cells were treated in the following sequential order in the presence or absence of WCDD301: incubation in KRBH (1 mM glucose, 30 minutes) followed by medium collection, incubation in KRBH (11 mM glucose, 30 minutes) followed by medium collection."}, "[2]": {"tested_on": "α cells of NOD mice islets", "assay": "F-actin signal in α cells of pancreatic slices of NOD mice", "type": "in vivo, mouse", "conditions": "WCDD301-treated NOD mice; diabetic 47.14 ± 4.70, nondiabetic 79.14 ± 4.63", "description": "Pancreata of NOD mice (females, n = 3 per group) from nondiabetic, diabetic placebo-treated, and diabetic WCDD301-treated cohorts were excised; fixed in 10% buffered formalin for 5 days; and treated with ethanol 70% for 2 days before paraffin embedding. The paraffin-embedded tissue blocks were longitudinally sectioned in 5 μm slices and fixed on microscope slides. Following deparaffinization (through incubation in graded xylene, graded ethanol, and PBS), permeabilization (using 0.1% Triton X-100 in PBS), and background blocking (using 5% BSA solution containing 0.1% Tween 20), samples were incubated with primary antibodies (mouse anti-glucagon, Abcam, catalog ab10988; above-mentioned rabbit anti-EphA4), secondary antibodies (goat anti-mouse IgG Alexa Fluor 488; Invitrogen, catalog A-11001; goat anti-rabbit IgG Alexa Fluor 633, Invitrogen, catalog A-21070), SPY555-Actin (Cytoskeleton, catalog SC202), and DAPI. Image acquisition and analysis were performed as for dispersed islet cells. […] ROIs were manually drawn around each islet, background signal was removed by thresholding, and intensity of glucagon signal was determined and normalized by the islet surface area. To determine sizes of α cells per islet, ROIs were manually drawn around α cells in each islet. […]"}, "[3]": {"assay": "Pharmacokinetics in CD-1 mice, subcutaneous or intravenous", "type": "in vivo, mouse", "conditions": "for Plasma concentration (Supplemental Figure 5A) / Plasma concentration (Supplemental Figure 5B): individual mice M1-M3, route not given", "description": "CD-1 mice were injected with WCDD301 subcutaneously (1 mg/kg, n = 3) or intravenously (1 mg/kg, n = 3), and blood was collected from saphenous vein directly into K2-EDTA–containing microcentrifuge tubes at 5, 10, and 15 minutes postdosing. An aliquot of 20 μL plasma was deproteinized using 200 μL of internal standard solution (100 ng/mL of labetalol and tolbutamide in acetonitrile), incubated for 10 minutes at RT, and centrifuged at 1,800g for 10 minutes at 4°C. Following 1:1 dilution of the supernatant with deionized water, 1 μL of the diluted sample was used for LC-MS/MS analysis (TripleQuad 6500, column: ACQUITY UPLC BEH C18 2.1 × 50 mm, 1.7 μm; flow rate: 0.6 mL/min, retention time: 1.60/1.78 WCDD301/labetalol)."}, "[4]": {"tested_on": "mouse dispersed islet cells", "assay": "Immunofluorescence: F-actin intensity in glucagon+ mouse dispersed islet cells;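 as to F-actin intensity: ImageJ intensity within ROI drawn around each glucagon+ cell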", "type": "cell-based", "description": "Coverslips were treated with WCDD301, preclustered Ephrin-A5 Fc, or preclustered Fc in the following sequential order: KRBH (11 mM glucose, 30 minutes), KRBH (1 mM glucose, 60 minutes), KRBH (1 mM glucose, 30 minutes), and KRBH (11 mM glucose, 60 minutes). After treatment, coverslips were washed once in PBS, fixed in 2% paraformaldehyde in PBS (30 minutes), and again washed in PBS. […] Following wash in PBS, coverslips were incubated in a mixture of Alexa Fluor 555 Phalloidin (Cell Signaling Technology, catalog 8953) and secondary antibodies (goat anti-rabbit Alexa Fluor 488, catalog A-21094, 1:1,000, Molecular Probes; and goat anti-mouse Alexa Fluor 633, catalog A21052, 1:1,000, Life Technologies) for 1 hour at RT. Both primary and secondary antibodies were diluted in blocking buffer containing 0.05% Tween 20. Coverslips were washed using PBS and counterstained by using DAPI (1:1,000) for 10 minutes. Following 2 washes in PBS, coverslips were mounted on glass slides using ProLong Glass Antifade Mountant (Invitrogen, catalog P36980). Images were captured using the Zeiss LSM880 microscope with a Plan-Apochromat 63× 1.4 NA objective lens by setting dual-band dichroic/filter for 405, 488, 561, and 633 nm laser excitation. For each slide, 25–30 fields of view were scanned, and in each field of view, 3–5 cells were imaged. […] Values of intensity were compared among groups using 1-way ANOVA, α = 0.05."}}, "note": "Where “and” joins values, the source holds several entries; their conditions need not be identical. Equal values may be shown once."}
{"molecule": "CC(=O)OCC(N)(COC(C)=O)COC(C)=O", "note": "[WCDD301, 2-(acetoxymethyl)-2-aminopropane-1,3-diyl diacetate]", "values": [{"measurement": "Effect on somatostatin secretion", "setting": "[1]; 1, 3 or 6 hours, Supplemental Figure 4A-C", "result": "no effect on somatostatin secretion"}, {"measurement": "Somatostatin secretion (Supplemental Figure 4D; quantity not given)", "setting": "[1]; WCDD301", "result": "1740.7 and 1280.5 and 1500.0"}, {"measurement": "F-actin signal within α cells", "setting": "[2]", "result": "74.50 ± 4.80", "unit": "AU"}, {"measurement": "Plasma concentration (Supplemental Figure 5A)", "setting": "[3]; 5 min", "result": "64.8 and 47.6 and 146"}, {"measurement": "Plasma concentration (Supplemental Figure 5B)", "setting": "[3]; 5 min", "result": "57.9 and 180 and 135"}, {"measurement": "Plasma concentration (Supplemental Figure 5A)", "setting": "[3]; 10 min", "result": "44.3 and 27.1 and 52.9"}, {"measurement": "Plasma concentration (Supplemental Figure 5B)", "setting": "[3]; 10 min", "result": "11 and 18.9 and 12.4"}, {"measurement": "Plasma concentration (Supplemental Figure 5A)", "setting": "[3]; 15 min", "result": "31.3 and 22.7 and 21.7"}, {"measurement": "Plasma concentration (Supplemental Figure 5B)", "setting": "[3]; 15 min", "result": "0 and 6.64 and 3.56"}, {"measurement": "Plasma concentration, subcutaneous compared with intravenous", "setting": "[3]; CD-1 mice, 1 mg/kg, 15 minutes", "result": "increased plasma concentrations of WCDD301 at 15 minutes following subcutaneous injection"}, {"measurement": "Effect on intracellular F-actin", "setting": "[4]; dispersed mouse islet cells", "result": "increased intracellular F-actin intensity"}, {"measurement": "F-actin intensity", "setting": "[4]; mouse cells, individual values, Figure 3F", "result": "7.9 and 8.3 and 9.3 and 13.4 and 7.5 and 18.4 and 8.1 and 17.0"}]}
